Our source for the Emax and EC50 values is patent publication US8846951B2 (AbbVie Inc., priority 2009, dated 2014).

Like-named read-outs stand apart in the source and are kept apart here.

One test has as its target T1, 5HT2C receptors (Homo sapiens, UniProt P28335).
T1 sequence (P28335 33-458): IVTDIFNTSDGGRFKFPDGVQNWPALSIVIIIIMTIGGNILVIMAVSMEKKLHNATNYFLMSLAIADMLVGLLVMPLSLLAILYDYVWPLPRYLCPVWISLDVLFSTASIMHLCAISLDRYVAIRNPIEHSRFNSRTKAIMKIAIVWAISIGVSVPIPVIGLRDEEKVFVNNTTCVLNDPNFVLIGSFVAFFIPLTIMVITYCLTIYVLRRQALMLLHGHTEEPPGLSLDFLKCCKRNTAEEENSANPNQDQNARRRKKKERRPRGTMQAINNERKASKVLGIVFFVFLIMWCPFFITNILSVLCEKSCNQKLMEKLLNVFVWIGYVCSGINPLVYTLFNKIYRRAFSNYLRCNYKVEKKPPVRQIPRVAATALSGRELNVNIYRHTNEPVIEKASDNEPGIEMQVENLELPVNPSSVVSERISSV
Description: Human 5-HT2C functional high throughput screening assay in CHO-K1 cells (calcium flux). Type of test: cell-based. Further details: expressed in transfected cells; host or cells: CHO-K1 cells; call rule not given here. Particulars: for Emax: CHO-K1, 5-HT2C, maximum functional response as percentage relative to the effect of serotonin; for EC50: CHO-K1 cells, calcium flux. The method, then: (§1) (iii) Human 5-HT2C and 5-HT2B Functional High Throughput Screening Assays in CHO-K1 Cells
(§2) CHO-K1 cells over-expressing 5HT2C or 5HT2B receptors were grown in 1272 cm^2 flasks to 70-80% confluency in UltraCHO media (Lonza, Walkersville, Md.) supplemented with 1% dialyzed fetal bovine serum (FBS), 250 μg/mL zeocin, 100 U/mL penicillin and 100 μg/mL streptomycin, and 400 μg/mL geneticin. The cells were dissociated from the flasks using 0.05% trypsin, resuspended in Recovery™ cell culture freezing medium (Invitrogen, Carlsbad, Calif.) and stored in liquid nitrogen until use. The calcium flux experiments were done using frozen cells. The cells were diluted in media containing 1% dialyzed FBS and 100 U/mL penicillin and 100 μg/mL streptomycin and plated into 384-well poly-D-Lysine coated plates (15,000 cells/well). Then the plates were incubated overnight in a cell incubator at 37° C., 5% CO2. On the next day, the growth media was replaced with media without FBS and further incubated overnight. On day three, the changes in intracellular Ca^2+ were determined using calcium sensitive fluorescent dye, Ca4 (MDS Analytical Technologies, Sunnyvale, Calif.) by loading 15 μL of diluted dye in Hank's Balanced Salt Solution and 20 mM Hepes buffer (pH 7.4) with final concentration of 2.5 mM probenecid into the cells containing media. Then the cells were incubated at room temperature for 60 minutes in dark.
(§3) After incubation, the cell plates were transferred to FLIPR™ (MDS) and their fluorescence measurements were read at an excitation wavelength of 480 nm and an emission wavelength of 530 nm at 25° C. The baseline fluorescence was measured for the first 10 seconds and then 15 μL of 4× concentration of serotonin/test compound was added to the cells. The fluorescence intensity was captured every second for the first 1 minute followed by every 5 seconds for an additional 2 minutes. The increase in fluorescent response by a test compound was normalized to the response of serotonin and used to determine agonist activity. The concentration response of compounds was done from a starting concentration of 10 μM, 1:10 dilution across 6 wells with a final dimethyl sulfoxide concentration of 0.2% and was fitted using a 4-parameter logistic equation. The concentration at which a compound exerts half its maximal effect was named as ‘effective concentration 50’ or ‘EC50’. Emax is the maximum functional response or efficacy expressed as a percentage relative to the effect of serotonin.

The target of another test is T2, 5HT2B receptors (Homo sapiens, UniProt P41595).
T2 construct: expressed in transfected cells; host or cells: CHO-K1 cells
T2 sequence (P41595 whole entry): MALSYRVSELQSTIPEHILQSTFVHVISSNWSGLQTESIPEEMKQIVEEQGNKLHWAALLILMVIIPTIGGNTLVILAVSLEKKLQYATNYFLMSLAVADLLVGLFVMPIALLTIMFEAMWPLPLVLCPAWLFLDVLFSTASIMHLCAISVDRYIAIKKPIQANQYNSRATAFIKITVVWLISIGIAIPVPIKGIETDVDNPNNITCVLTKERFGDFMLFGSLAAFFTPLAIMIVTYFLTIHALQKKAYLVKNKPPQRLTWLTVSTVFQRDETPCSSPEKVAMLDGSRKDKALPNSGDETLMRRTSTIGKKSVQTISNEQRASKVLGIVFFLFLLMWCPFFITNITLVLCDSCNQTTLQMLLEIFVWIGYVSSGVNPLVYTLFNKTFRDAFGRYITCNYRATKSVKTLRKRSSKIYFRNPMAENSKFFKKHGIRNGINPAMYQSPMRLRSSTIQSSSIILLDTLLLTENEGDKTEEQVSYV
Description: Human 5-HT2B functional high throughput screening assay in CHO-K1 cells (calcium flux). The test is classed as cell-based. Particulars: for EC50: CHO-K1 cells, calcium flux. The procedure: as §1, §2, §3

Setting [1] is: 5-HT2B, maximum functional response as percentage relative to the effect of serotonin.
[2] abbreviates: 5-HT2C agonist activity, read-out: EC50.
The mark [3] stands for this setting: 5-HT2B agonist activity, read-out: EC50.

With `CN1C[C@H]2CNC(=O)c3cc(/C=C/C4CC4)ccc3[C@@H]2C1` (relative stereo) [Example 305, Trans-8-[(E)-2-cyclopropylvinyl]-2-methyl-2,3,3a,4,5,10b-hexahydropyrrolo[3,4-d][2]benzazepin-6(1H)-one], the Emax on 5HT2C receptors is 90%; on 5HT2B receptors (setting [1]), “inactive”. For the same compound, the EC50 was 6 nM on 5HT2C receptors (EC50, 5-HT2C agonist activity) and over 10000 nM on 5HT2B receptors (EC50, 5-HT2B agonist activity).

`O=C1NC[C@@H]2CN(Cc3ccccc3)C[C@H]2c2ncccc21` (relative stereo) [Example 151, Trans-9-benzyl-7,7a,8,9,10,10a-hexahydropyrido[2,3-e]pyrrolo[3,4-c]azepin-5(6H)-one]: the Emax is over 120% at 5HT2C receptors and “inactive” at 5HT2B receptors (setting [1]). Further, the EC50 on 5HT2C receptors (EC50, 5-HT2C agonist activity) is 70 nM; on 5HT2B receptors (EC50, 5-HT2B agonist activity) it was over 10000 nM.

For the compound `Clc1ccc2c(c1)[C@@H]1CNC[C@H]1CCN2` (relative stereo) [Example 391, Trans-9-chloro-1,2,3,3a,4,5,6,10b-octahydropyrrolo[3,4-d][1]benzazepine], the Emax on 5HT2C receptors is 90%; at 5HT2B receptors (CHO-K1), 70%. For the same compound, the EC50 on 5HT2C receptors (EC50, 5-HT2C agonist activity) is 90 nM; at 5HT2B receptors (EC50, 5-HT2B agonist activity) it was 20 nM.

On to `O=S(=O)(c1ccc(C(F)(F)F)cc1)N1Cc2cccnc2[C@@H]2CNC[C@H]2C1` (relative stereo) [Example 347, Trans-6-{[4-(trifluoromethyl)phenyl]sulfonyl}-5,6,7,7a,8,9,10,10a-octahydropyrido[3,2-c]pyrrolo[3,4-e]azepine], for which the values for the EC50 on 5HT2C receptors (setting [2]) and at 5HT2B receptors (setting [3]) were 90 nM and over 10000 nM, respectively. Further, the Emax is 90% at 5HT2C receptors (read-out: Emax) and “inactive” at 5HT2B receptors (setting [1]).

As for `C[C@@H](Cc1ccccc1)Oc1ccc2c(c1)C(=O)NC[C@@H]1CN(Cc3ccccc3)C[C@@H]21` (mixture of isomers) [Example 120, Trans-2-benzyl-8-((S)-1-phenylpropan-2-yloxy)-1,2,3,3a,4,5-hexahydrobenzo[e]pyrrolo[3,4-c]azepin-6(10bH)-one], the half-maximal effective concentration (EC50) was 400 nM at 5HT2C receptors (setting [2]) and over 10000 nM on 5HT2B receptors (setting [3]). Besides, the maximum response (Emax) at 5HT2C receptors (read-out: Emax) was 110%; at 5HT2B receptors (setting [1]), “inactive”.

With `Fc1ccc2c(c1)[C@@H]1CNC[C@@H]1CCO2` (relative stereo) [Example 284, Cis-9-fluoro-2,3,3a,4,5,10b-hexahydro-1H-[1]benzoxepino[4,5-c]pyrrole], the values for the Emax on 5HT2C receptors and at 5HT2B receptors (CHO-K1) were 85% and 55%, respectively. In addition, the EC50 at 5HT2C receptors (EC50, 5-HT2C agonist activity) was 400 nM; on 5HT2B receptors (EC50, 5-HT2B agonist activity), 10 nM.

As to `CN1C[C@H]2CNC(=O)c3cc(-c4ccc(F)cc4F)ccc3[C@@H]2C1` (relative stereo) [Example 331, Trans-8-(2,4-difluorophenyl)-2-methyl-2,3,3a,4,5,10b-hexahydropyrrolo[3,4-d][2]benzazepin-6(1H)-one], the EC50 on 5HT2C receptors (setting [2]) was 200 nM; on 5HT2B receptors (setting [3]), over 10000 nM. Further, the Emax on 5HT2C receptors (read-out: Emax) is 95%; on 5HT2B receptors (setting [1]), “inactive”.

In the case of `CN1C[C@@H]2CNC(=O)c3cc(-c4cccc(S(C)(=O)=O)c4)ccc3[C@H]2C1` [Example 228, (3aS,10bS)-2-Methyl-8-(3-(methylsulfonyl)phenyl)-1,2,3,3a,4,5-hexahydrobenzo[c]pyrrolo[3,4-e]azepin-6(10bH)-one], the EC50 was 7 nM on 5HT2C receptors (setting [2]) and over 10000 nM on 5HT2B receptors (setting [3]). For the same compound, the Emax at 5HT2C receptors (read-out: Emax) is over 120%; on 5HT2B receptors (setting [1]), “inactive”.

`O=C1NC[C@@H]2CNC[C@H]2c2ccc(OCc3cccc(F)c3)cc21` (relative stereo) [Example 146, Trans-8-(3-fluorobenzyloxy)-1,2,3,3a,4,5-hexahydrobenzo[e]pyrrolo[3,4-c]azepin-6(10bH)-one]: the values for the Emax at 5HT2C receptors and at 5HT2B receptors (CHO-K1) were over 120% and 15%, respectively. Moreover, the EC50 at 5HT2C receptors (EC50, 5-HT2C agonist activity) worked out at 0.8 nM; on 5HT2B receptors (EC50, 5-HT2B agonist activity) it was 1000 nM.

As for `Brc1cccc2c1[C@H]1CNC[C@@H]1CCO2` (relative stereo) [Example 377, Trans-10-bromo-2,3,3a,4,5,10b-hexahydro-1H-[1]benzoxepino[4,5-c]pyrrole], the Emax at 5HT2C receptors was found to be 100%; on 5HT2B receptors (CHO-K1), 30%. In addition, the EC50 on 5HT2C receptors (EC50, 5-HT2C agonist activity) was 200 nM; on 5HT2B receptors (EC50, 5-HT2B agonist activity), 30 nM.

With `O=C1NC[C@@H]2CNC[C@H]2c2ncccc21` (relative stereo) [Example 153, Trans-7,7a,8,9,10,10a-hexahydropyrido[2,3-e]pyrrolo[3,4-c]azepin-5(6H)-one], the figures for the Emax on 5HT2C receptors and at 5HT2B receptors (CHO-K1) were over 120% and 30%, respectively. In addition, the EC50 on 5HT2C receptors (EC50, 5-HT2C agonist activity) is 80 nM; at 5HT2B receptors (EC50, 5-HT2B agonist activity) it was over 10000 nM.

Turning to `CN1C[C@@H]2CNC(=O)c3cc(OCc4cccc(F)c4)ccc3[C@H]2C1` [Example 206, (3aS,10bS)-8-(3-Fluorobenzyloxy)-2-methyl-1,2,3,3a,4,5-hexahydrobenzo[e]pyrrolo[3,4-c]azepin-6(10bH)-one], the values for the EC50 at 5HT2C receptors (setting [2]) and at 5HT2B receptors (setting [3]) were 2 nM and over 10000 nM, respectively. Further, the results for the Emax on 5HT2C receptors (read-out: Emax) and at 5HT2B receptors (setting [1]) were over 120% and “inactive”, respectively.

For `Cc1cc(-c2ccc3c(c2)C(=O)NC[C@@H]2CN(C)C[C@@H]32)ccc1F` (relative stereo) [Example 314, Trans-8-(4-fluoro-3-methylphenyl)-2-methyl-2,3,3a,4,5,10b-hexahydropyrrolo[3,4-d][2]benzazepin-6(1H)-one], the figures for the EC50 at 5HT2C receptors (setting [2]) and at 5HT2B receptors (setting [3]) were 3 nM and over 10000 nM, respectively. Moreover, the Emax was 95% on 5HT2C receptors (read-out: Emax) and “inactive” at 5HT2B receptors (setting [1]).

On to `COc1ccc(S(=O)(=O)N2Cc3cccnc3[C@@H]3CNC[C@H]3C2)cc1` (relative stereo) [Example 346, Trans-6-[(4-methoxyphenyl)sulfonyl]-5,6,7,7a,8,9,10,10a-octahydropyrido[3,2-c]pyrrolo[3,4-e]azepine], for which the EC50 was 100 nM on 5HT2C receptors (setting [2]) and over 10000 nM on 5HT2B receptors (setting [3]). Further, the Emax on 5HT2C receptors (read-out: Emax) was 85%; at 5HT2B receptors (setting [1]) it was “inactive”.

Consider `COc1ccc2c(c1)C(=O)NC[C@@H]1CNC[C@H]21` (relative stereo) [Example 135, Cis-8-methoxy-1,2,3,3a,4,5-hexahydrobenzo[e]pyrrolo[3,4-c]azepin-6(10bH)-one], for which the EC50 at 5HT2C receptors (setting [2]) is 800 nM; on 5HT2B receptors (setting [3]) it was over 10000 nM. Moreover, the results for the Emax at 5HT2C receptors and at 5HT2B receptors (setting [1]) were over 120% and “inactive”, respectively.

As for `O=S(=O)(c1ccc(Br)s1)N1Cc2cccnc2[C@@H]2CNC[C@H]2C1` (relative stereo) [Example 360, Trans-6-[(5-bromo-2-thienyl)sulfonyl]-5,6,7,7a,8,9,10,10a-octahydropyrido[3,2-c]pyrrolo[3,4-e]azepine], the Emax on 5HT2C receptors stood at 80%; on 5HT2B receptors (CHO-K1), 20%. Also, the EC50 worked out at 10 nM on 5HT2C receptors (EC50, 5-HT2C agonist activity) and 300 nM at 5HT2B receptors (EC50, 5-HT2B agonist activity).

Take `CN1C[C@H]2CNC(=O)c3cc(OCc4ccccc4)ccc3[C@@H]2C1` (relative stereo) [Example 216, Trans-8-(benzyloxy)-2-methyl-1,2,3,3a,4,5-hexahydrobenzo[c]pyrrolo[3,4-e]azepin-6(10bH)-one]: the Emax at 5HT2C receptors was over 120%; at 5HT2B receptors (setting [1]), “inactive”. In addition, the EC50 at 5HT2C receptors (EC50, 5-HT2C agonist activity) is 2 nM; at 5HT2B receptors (EC50, 5-HT2B agonist activity) it was over 10000 nM.

For the compound `COc1ccc(-c2ccc3c(c2)C(=O)NC[C@H]2CN(C)C[C@H]32)cn1` [Example 318, (3aS,10bS)-8-(6-Methoxypyridin-3-yl)-2-methyl-2,3,3a,4,5,10b-hexahydropyrrolo[3,4-d][2]benzazepin-6(1H)-one], the Emax at 5HT2C receptors is 90%; on 5HT2B receptors (setting [1]), “inactive”. The EC50 was 10 nM on 5HT2C receptors (EC50, 5-HT2C agonist activity) and over 10000 nM on 5HT2B receptors (EC50, 5-HT2B agonist activity).

Usually Emax stands for the size of the effect at its maximum, as opposed to the concentration needed. By EC50 is commonly meant the midpoint of the concentration-response curve.
